Reference: ChEMBL document CHEMBL4049405, “Investigation on cellular uptake and pharmacodynamics of DOCK2-inhibitory peptides conjugated with cell-penetrating peptides” (Bioorg Med Chem, 2017)
Positions of bridges follow the written chain, without caps; N, C: chain ends. Non-standard residues stand in square brackets, D forms with d. Residues, ends and D or L forms follow the SMILES beside them. *: point of attachment. X1 = O=C(OCCCS*)Oc1ccc2nc(C3=N[C@@H](C(=O)O)CS3)sc2c1; X2 = CC(=O)[C@H]1CSC(c2nc3ccc(OC(=O)OCCCS*)cc3s2)=N1; Mpa = O=C(O)CCS

Columns and labels:
[1] = Cytotoxicity against HEK293T cells assessed as cell viability at 50 uM by CellTiter-Glo assay relative to control; settings: human
[2] = in vitro; settings: human, HEK293T cells
Description: Cytotoxicity against HEK293T cells assessed as cell viability at 25 uM by CellTiter-Glo assay relative to control

[3] = in vitro; settings: human, HEK293T cells; remark: listed apart in the source
Description: Cytotoxicity against HEK293T cells assessed as cell viability at 12.5 uM by CellTiter-Glo assay relative to control

[4] = Drug uptake in HEK293T cells expressing luciferase reporter gene at 50 uM measured every 3 mins for 60 mins by luminescence assay relative to 50 uM luciferin; format: ADME, cell-based; settings: human, hek-293t, 1 h
[5] = in vitro; settings: human, HEK293T cells; remark: listed apart in the source
Description: Cytotoxicity against HEK293T cells assessed as cell viability at 6.3 uM by CellTiter-Glo assay relative to control

[6] = in vitro; settings: human, HEK293T cells; remark: listed apart in the source
Description: Cytotoxicity against HEK293T cells assessed as cell viability at 5.6 uM by CellTiter-Glo assay relative to control

[7] = in vitro; settings: human, HEK293T cells; remark: listed apart in the source
Description: Cytotoxicity against HEK293T cells assessed as cell viability at 16.7 uM by CellTiter-Glo assay relative to control

[8] = in vitro; settings: human, HEK293T cells; remark: listed apart in the source
Description: Cytotoxicity against HEK293T cells assessed as cell viability at 1.9 uM by CellTiter-Glo assay relative to control

fold change (FC) [4] | Structure (SMILES) | viability at 50 µM [1] | viability at 25 µM [2] | viability at 12.5 µM [3] | viability at 6.3 µM [5] | viability at 5.6 µM [6] | viability at 16.7 µM [7] | viability at 1.9 µM [8]
61 | CC(=O)N[C@@H](CSSCCCOC(=O)Oc1ccc2nc(C3=N[C@@H](C(=O)O)CS3)sc2c1)C(=O)N[C@H]1CSSC[C@@H](C(=O)N[C@@H](CCCNC(=N)N)C(=O)N[C@@H](CCCNC(=N)N)C(=O)N[C@@H](CCCNC(=N)N)C(=O)N[C@@H](CCCNC(=N)N)C(=O)N[C@@H](CCCNC(=N)N)C(=O)N[C@@H](CCCNC(=N)N)C(=O)N[C@@H](CCCNC(=N)N)C(=O)N[C@@H](CCCNC(=N)N)C(N)=O)NC(=O)[C@H](Cc2c[nH]c3ccccc23)NC(=O)[C@@H]2CCCN2C(=O)[C@H](Cc2ccc(O)cc2)NC(=O)CNC(=O)[C@H](Cc2cnc[nH]2)NC(=O)[C@H](Cc2ccc(O)cc2)NC(=O)[C@H](CCCCN)NC(=O)[C@H](C)NC(=O)[C@H](C(C)C)NC1=O (Ac-C(X1)CVAKYHGYPWCRRRRRRRR-NH2; disulfide 2-12) | 71.7% | 99.7% | 104% | 108% | – | – | –
30.7 | CC(C)C[C@H](NC(=O)[C@H](CCCCN)NC(=O)[C@H](Cc1c[nH]c2ccccc12)NC(=O)[C@H](CCCNC(=N)N)NC(=O)[C@H](CCCCN)NC(=O)[C@H](CC(C)C)NC(=O)[C@@H](NC(=O)[C@H](CCCNC(=N)N)NC(=O)[C@@H](NC(=O)[C@H](CCCCN)NC(=O)CCSSCCCOC(=O)Oc1ccc2nc(C3=N[C@@H](C(=O)O)CS3)sc2c1)[C@@H](C)O)C(C)C)C(N)=O ([Mpa](X1)KTRVLKRWKL-NH2) | 80.1% | – | – | – | 85.3% | 80.5% | 77.7%
34.5 | CC(C)C[C@H](NC(=O)CCSSCCCOC(=O)Oc1ccc2nc(C3=N[C@@H](C(=O)O)CS3)sc2c1)C(=O)N[C@@H](CCCCN)C(=O)N[C@@H](CCCNC(=N)N)C(=O)N[C@@H](Cc1c[nH]c2ccccc12)C(=O)N[C@@H](CCCCN)C(=O)N[C@@H](CC(C)C)C(=O)N[C@@H](Cc1ccccc1)C(=O)N[C@@H](CC(N)=O)C(=O)N[C@@H](CCCCN)C(=O)N[C@@H](CCC(N)=O)C(N)=O ([Mpa](X1)LKRWKLFNKQ-NH2) | 94% | – | – | – | 93.7% | 88.1% | 94.2%
30.1 | CC(C)C[C@H](NC(=O)CCSSCCCOC(=O)Oc1ccc2nc(C3=N[C@@H](C(=O)O)CS3)sc2c1)C(=O)N[C@@H](CCCCN)C(=O)N[C@H](C(=O)N[C@@H](CCCNC(=N)N)C(=O)N[C@H](C(=O)N[C@@H](CC(C)C)C(=O)N[C@@H](CCCCN)C(=O)N[C@@H](CCCNC(=N)N)C(=O)N[C@@H](Cc1c[nH]c2ccccc12)C(=O)N[C@@H](CCCCN)C(N)=O)C(C)C)[C@@H](C)O ([Mpa](X1)LKTRVLKRWK-NH2) | 87.8% | – | – | – | 80% | 79.1% | 88.5%
18.2 | CC(C)C[C@H](NC(=O)[C@H](CCCCN)NC(=O)[C@H](Cc1c[nH]c2ccccc12)NC(=O)[C@H](CCCNC(=N)N)NC(=O)CCSSCCCOC(=O)Oc1ccc2nc(C3=N[C@@H](C(=O)O)CS3)sc2c1)C(=O)N[C@@H](Cc1ccccc1)C(=O)N[C@@H](CC(N)=O)C(=O)N[C@@H](CCCCN)C(=O)N[C@@H](CCC(N)=O)C(=O)N[C@@H](CCC(=O)O)C(=O)N[C@@H](Cc1c[nH]c2ccccc12)C(N)=O ([Mpa](X1)RWKLFNKQEW-NH2) | 102% | – | – | – | 93.6% | 92.8% | 92.3%
16.7 | CC(C)C[C@H](NC(=O)[C@H](CO)NC(=O)CCSSCCCOC(=O)Oc1ccc2nc(C3=N[C@@H](C(=O)O)CS3)sc2c1)C(=O)N[C@@H](CCCCN)C(=O)N[C@H](C(=O)N[C@@H](CCCNC(=N)N)C(=O)N[C@H](C(=O)N[C@@H](CC(C)C)C(=O)N[C@@H](CCCCN)C(=O)N[C@@H](CCCNC(=N)N)C(=O)N[C@@H](Cc1c[nH]c2ccccc12)C(N)=O)C(C)C)[C@@H](C)O ([Mpa](X1)SLKTRVLKRW-NH2) | 83.8% | – | – | – | 89.6% | 84.3% | 84%
14.7 | CC(C)C[C@H](NC(=O)[C@H](CCCCN)NC(=O)[C@H](Cc1c[nH]c2ccccc12)NC(=O)CCSSCCCOC(=O)Oc1ccc2nc(C3=N[C@@H](C(=O)O)CS3)sc2c1)C(=O)N[C@@H](Cc1ccccc1)C(=O)N[C@@H](CC(N)=O)C(=O)N[C@@H](CCCCN)C(=O)N[C@@H](CCC(N)=O)C(=O)N[C@@H](CCC(=O)O)C(=O)N[C@@H](Cc1c[nH]c2ccccc12)C(=O)N[C@H](C(N)=O)[C@@H](C)O ([Mpa](X1)WKLFNKQEWT-NH2) | 102% | – | – | – | 99.6% | 104% | 100%

Further lines, the compound ahead of its results:

Structure (SMILES) | fold change (FC) [4] | viability at 50 µM [1] | viability at 25 µM [2] | viability at 12.5 µM [3] | viability at 6.3 µM [5] | viability at 5.6 µM [6] | viability at 16.7 µM [7] | viability at 1.9 µM [8]
CC(=O)N[C@@H](CSSCCCOC(=O)Oc1ccc2nc(C3=N[C@@H](C(C)=O)CS3)sc2c1)C(=O)N[C@H]1CSSC[C@@H](C(=O)N[C@@H](CCCNC(=N)N)C(=O)N[C@@H](CCCNC(=N)N)C(=O)N[C@@H](CCCNC(=N)N)C(N)=O)NC(=O)[C@H](Cc2c[nH]c3ccccc23)NC(=O)[C@@H]2CCCN2C(=O)[C@H](Cc2ccc(O)cc2)NC(=O)CNC(=O)[C@H](Cc2cnc[nH]2)NC(=O)[C@H](Cc2ccc(O)cc2)NC(=O)[C@H](CCCCN)NC(=O)[C@H](C)NC(=O)[C@H](C(C)C)NC1=O (Ac-C(X2)CVAKYHGYPWCRRR-NH2; disulfide 2-12) | 22.8 | 126% | 115% | 112% | 105% | – | – | –
CC(C)C[C@H](NC(=O)[C@H](CO)NC(=O)CNC(=O)CCSSCCCOC(=O)Oc1ccc2nc(C3=N[C@@H](C(=O)O)CS3)sc2c1)C(=O)N[C@@H](CCCCN)C(=O)N[C@H](C(=O)N[C@@H](CCCNC(=N)N)C(=O)N[C@H](C(=O)N[C@@H](CC(C)C)C(=O)N[C@@H](CCCCN)C(=O)N[C@@H](CCCNC(=N)N)C(N)=O)C(C)C)[C@@H](C)O ([Mpa](X1)GSLKTRVLKR-NH2) | 11.2 | 87% | – | – | – | 100% | 93.1% | 101%
CC(C)C[C@H](NC(=O)[C@H](CCCCN)NC(=O)CCSSCCCOC(=O)Oc1ccc2nc(C3=N[C@@H](C(=O)O)CS3)sc2c1)C(=O)N[C@@H](Cc1ccccc1)C(=O)N[C@@H](CC(N)=O)C(=O)N[C@@H](CCCCN)C(=O)N[C@@H](CCC(N)=O)C(=O)N[C@@H](CCC(=O)O)C(=O)N[C@@H](Cc1c[nH]c2ccccc12)C(=O)N[C@H](C(=O)N[C@@H](CC(N)=O)C(N)=O)[C@@H](C)O ([Mpa](X1)KLFNKQEWTN-NH2) | 9.7 | 99.4% | – | – | – | 98.8% | 97.6% | 93%
CC(C)C[C@H](NC(=O)[C@H](CCCCN)NC(=O)[C@H](Cc1c[nH]c2ccccc12)NC(=O)[C@H](CCCNC(=N)N)NC(=O)[C@H](CCCCN)NC(=O)CCSSCCCOC(=O)Oc1ccc2nc(C3=N[C@@H](C(=O)O)CS3)sc2c1)C(=O)N[C@@H](Cc1ccccc1)C(=O)N[C@@H](CC(N)=O)C(=O)N[C@@H](CCCCN)C(=O)N[C@@H](CCC(N)=O)C(=O)N[C@@H](CCC(=O)O)C(N)=O ([Mpa](X1)KRWKLFNKQE-NH2) | 13.6 | 93.8% | – | – | – | 106% | 93.7% | 95.8%
CC(C)C[C@H](NC(=O)[C@H](CCCCN)NC(=O)[C@H](Cc1c[nH]c2ccccc12)NC(=O)[C@H](CCCNC(=N)N)NC(=O)[C@H](CCCCN)NC(=O)[C@H](CC(C)C)NC(=O)[C@@H](NC(=O)[C@H](CCCNC(=N)N)NC(=O)CCSSCCCOC(=O)Oc1ccc2nc(C3=N[C@@H](C(=O)O)CS3)sc2c1)C(C)C)C(=O)N[C@@H](Cc1ccccc1)C(=O)N[C@@H](CC(N)=O)C(N)=O ([Mpa](X1)RVLKRWKLFN-NH2) | 198.2 | 86% | – | – | – | 94.4% | 92.5% | 93.5%
CC(C)C[C@H](NC(=O)[C@H](CCCCN)NC(=O)[C@H](Cc1c[nH]c2ccccc12)NC(=O)[C@H](CCCNC(=N)N)NC(=O)[C@H](CCCCN)NC(=O)[C@H](CC(C)C)NC(=O)[C@@H](NC(=O)[C@H](CCCNC(=N)N)NC(=O)[C@@H](NC(=O)CCSSCCCOC(=O)Oc1ccc2nc(C3=N[C@@H](C(=O)O)CS3)sc2c1)[C@@H](C)O)C(C)C)C(=O)N[C@@H](Cc1ccccc1)C(N)=O ([Mpa](X1)TRVLKRWKLF-NH2) | 216.3 | 88.5% | – | – | – | 92.4% | 97.3% | 94.3%
CC(C)C[C@H](NC(=O)[C@H](CCCCN)NC(=O)[C@H](Cc1c[nH]c2ccccc12)NC(=O)[C@H](CCCNC(=N)N)NC(=O)[C@H](CCCCN)NC(=O)[C@H](CC(C)C)NC(=O)[C@@H](NC(=O)CCSSCCCOC(=O)Oc1ccc2nc(C3=N[C@@H](C(=O)O)CS3)sc2c1)C(C)C)C(=O)N[C@@H](Cc1ccccc1)C(=O)N[C@@H](CC(N)=O)C(=O)N[C@@H](CCCCN)C(N)=O ([Mpa](X1)VLKRWKLFNK-NH2) | 30.3 | 95.9% | – | – | – | 98.5% | 99.6% | 88.6%
